US20080009418A1, “Selective Inhibitors” (Alchemia LTD., priority 2004, published 2008)

Legend:
Conditions in all cases: compound at 10 μM
Human δ-opioid (DOP) = target: T1, Human δ-opioid (DOP) (Homo sapiens, UniProt P41143); assay: Radioligand binding, human δ-opioid (DOP) membranes, FlashPlate, [3H]-Bremazocine
T1 construct: purchased Perkin Elmer Biosignal
Procedure, shortened: (§1)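 Cloned human receptor membranes were coated onto FlashPlate wells and incubated with radioligand and compound (added from a 0.5 mM DMSO daughter plate) for 1 hour at room temperature in the dark. Scintillation counting gave percent inhibition, with DMSO defining total and reference ligand defining non-specific binding.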

Human neurokinin (NK1) = target: T2, Human neurokinin (NK1) (Homo sapiens, UniProt P25103); assay: Radioligand binding, human neurokinin NK1 membranes, filtration, [125I]-Substance P
T2 construct: purchased Perkin Elmer Biosignal
Procedure, shortened: (§2)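 Filtration binding on cloned human receptor membranes (1 Unit/well), [125I]-Substance P for NK1 and [3H]-Diprenorphine for KOP, 1 h at room temperature. Filters PEI-presoaked, washed with cold 50 mM Tris-HCl pH 7.4, counted by scintillation; percent inhibition calculated, reference ligand defining non-specific binding.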

[1] = target: T3, Human melanin-concentrating hormone (MCH1) (Homo sapiens, UniProt Q99705); assay: Radioligand binding, human melanin-concentrating hormone MCH1 membranes, FlashPlate, [125I]-S36057
T3 construct: purchased Perkin Elmer Biosignal
Procedure, shortened: as §1

Human Melanocortin (MC3) = target: T4, Human Melanocortin (MC3) (Homo sapiens, UniProt P41968); assay: Radioligand binding, human melanocortin MC3 membranes, FlashPlate, [125I]-NDP-αMSH
T4 construct: purchased Perkin Elmer Biosignal
Procedure, shortened: as §1

[2] = target: T5, Human neuropeptide Y (NPY-Y1) (Homo sapiens, UniProt P25929); assay: Radioligand binding, human neuropeptide Y NPY-Y1 membranes, FlashPlate, [125I]-PYY
T5 construct: purchased Perkin Elmer Biosignal
T5 sequence (P25929 1-384): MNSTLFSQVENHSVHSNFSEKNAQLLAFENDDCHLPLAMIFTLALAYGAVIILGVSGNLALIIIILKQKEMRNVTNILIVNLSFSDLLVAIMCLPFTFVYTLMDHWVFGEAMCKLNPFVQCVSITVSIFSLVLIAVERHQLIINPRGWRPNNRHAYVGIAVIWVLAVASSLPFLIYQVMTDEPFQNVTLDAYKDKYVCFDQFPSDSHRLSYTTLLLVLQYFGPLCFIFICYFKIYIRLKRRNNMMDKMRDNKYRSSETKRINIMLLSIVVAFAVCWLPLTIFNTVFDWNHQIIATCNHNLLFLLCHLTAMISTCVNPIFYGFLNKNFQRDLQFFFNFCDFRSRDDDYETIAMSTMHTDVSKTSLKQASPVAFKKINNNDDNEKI
Procedure, shortened: as §1

Human μ-opioid (MOP) = target: T6, Human μ-opioid (MOP) (Homo sapiens, UniProt P35372); assay: Radioligand binding, human μ-opioid (MOP) membranes, FlashPlate, [3H]-Naloxone
T6 construct: purchased Perkin Elmer Biosignal
Procedure, shortened: as §1

Human opioid (ORL1) = target: T7, Human opioid (ORL1) (Homo sapiens, UniProt P41146); assay: Radioligand binding, human opioid ORL1 membranes, FlashPlate, [125I]-Nociceptin
T7 construct: purchased Perkin Elmer Biosignal
Procedure, shortened: as §1

Mouse urotensin (mUR2) = target: T8, Mouse urotensin (mUR2) (Mus musculus, UniProt Q8VIH9); assay: Radioligand binding, mouse urotensin mUR2 membranes, FlashPlate, [125I]-Urotensin II
T8 construct: purchased Perkin Elmer Biosignal
T8 sequence (Q8VIH9 1-385): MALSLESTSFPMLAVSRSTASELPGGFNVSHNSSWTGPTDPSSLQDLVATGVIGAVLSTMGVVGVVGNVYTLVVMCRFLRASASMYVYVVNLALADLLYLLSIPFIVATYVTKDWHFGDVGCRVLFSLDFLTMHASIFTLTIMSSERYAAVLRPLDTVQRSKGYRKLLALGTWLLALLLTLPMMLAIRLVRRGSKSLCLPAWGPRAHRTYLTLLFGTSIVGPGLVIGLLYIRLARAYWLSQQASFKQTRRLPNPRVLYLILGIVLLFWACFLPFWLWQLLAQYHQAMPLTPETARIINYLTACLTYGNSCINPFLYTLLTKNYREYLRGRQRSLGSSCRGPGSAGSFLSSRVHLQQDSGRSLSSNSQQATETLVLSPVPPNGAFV
Procedure, shortened: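 Cloned mouse urotensin (mUR2) receptor membranes from Perkin Elmer Biosignal were immobilized in FlashPlate microplates using a proprietary coating. Each well got 19.5 μl buffer, then 0.5 μl of DMSO, reference ligand, or compound. Adding 5 μl of [125I]-Urotensin II, diluted to 5× final concentration in binding buffer, started binding. Plates were sealed with TopSeal-A and incubated 1 hour at room temperature in the dark. Wells were counted for 30 seconds each on a TopCount after a 60-second delay, and percentage inhibition was calculated.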

Human melanocortin (MC5) = target: T9, Human melanocortin (MC5) (Homo sapiens, UniProt P33032); assay: Radioligand binding, human melanocortin MC5 membranes, FlashPlate, [125I]-NDP-αMSH
T9 construct: purchased Perkin Elmer Biosignal
Procedure, shortened: as §1

Human Melanocortin (MC4) = target: T10, Human Melanocortin (MC4) (Homo sapiens, UniProt P32245); assay: Radioligand binding, human melanocortin MC4 membranes, FlashPlate, [125I]-NDP-αMSH
T10 construct: purchased Perkin Elmer Biosignal
Procedure, shortened: as §1

Human κ-Opioid (KOP) = target: T11, Human κ-Opioid (KOP) (Homo sapiens, UniProt P41145); assay: Radioligand binding, human κ-opioid (KOP) membranes, filtration, [3H]-Diprenorphine
T11 construct: purchased Perkin Elmer Biosignal
Procedure, shortened: as §2

[3] = [3H]-Bremazocine, human DOP membranes
[4] = [125I]-Substance P, human NK1 membranes
[5] = [125I]-PYY, human NPY-Y1 membranes
[6] = [3H]-Naloxone, human MOP membranes
[7] = [125I]-Urotensin II, mouse mUR2 membranes
[8] = [125I]-NDP-αMSH, human MC5 membranes
[9] = [125I]-NDP-αMSH, human MC4 membranes
[10] = [3H]-Diprenorphine, human KOP membranes

T11 sequence (P41145 whole entry): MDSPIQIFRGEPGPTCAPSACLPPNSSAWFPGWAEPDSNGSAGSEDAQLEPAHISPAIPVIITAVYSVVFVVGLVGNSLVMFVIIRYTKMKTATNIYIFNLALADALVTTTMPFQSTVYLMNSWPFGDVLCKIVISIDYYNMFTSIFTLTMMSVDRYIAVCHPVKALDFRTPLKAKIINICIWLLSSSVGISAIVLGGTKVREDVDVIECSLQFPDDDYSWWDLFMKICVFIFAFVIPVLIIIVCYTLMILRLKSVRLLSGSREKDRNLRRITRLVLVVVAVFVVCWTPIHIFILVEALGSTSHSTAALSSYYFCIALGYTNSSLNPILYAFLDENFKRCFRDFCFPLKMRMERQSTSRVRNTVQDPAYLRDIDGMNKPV
T1 sequence (P41143 whole entry): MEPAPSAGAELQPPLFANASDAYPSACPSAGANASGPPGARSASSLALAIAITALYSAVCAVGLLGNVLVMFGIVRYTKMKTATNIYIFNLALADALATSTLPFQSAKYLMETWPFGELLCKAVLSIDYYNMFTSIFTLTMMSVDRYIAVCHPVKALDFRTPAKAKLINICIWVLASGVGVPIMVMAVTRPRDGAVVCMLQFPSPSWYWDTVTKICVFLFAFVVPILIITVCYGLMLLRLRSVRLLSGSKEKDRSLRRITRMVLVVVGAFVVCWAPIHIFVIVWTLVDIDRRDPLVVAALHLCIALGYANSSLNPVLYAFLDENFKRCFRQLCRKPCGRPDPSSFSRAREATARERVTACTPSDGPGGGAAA
T10 sequence (P32245 whole entry): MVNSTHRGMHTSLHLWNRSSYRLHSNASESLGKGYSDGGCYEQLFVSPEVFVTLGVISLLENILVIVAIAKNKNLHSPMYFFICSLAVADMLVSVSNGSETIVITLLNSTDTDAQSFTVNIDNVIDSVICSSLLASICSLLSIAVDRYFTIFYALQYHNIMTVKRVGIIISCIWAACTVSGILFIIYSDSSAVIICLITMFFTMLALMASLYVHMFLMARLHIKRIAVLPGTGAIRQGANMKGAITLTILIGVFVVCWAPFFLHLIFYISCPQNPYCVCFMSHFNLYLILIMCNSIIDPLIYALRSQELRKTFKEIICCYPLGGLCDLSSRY
T3 sequence (Q99705 whole entry): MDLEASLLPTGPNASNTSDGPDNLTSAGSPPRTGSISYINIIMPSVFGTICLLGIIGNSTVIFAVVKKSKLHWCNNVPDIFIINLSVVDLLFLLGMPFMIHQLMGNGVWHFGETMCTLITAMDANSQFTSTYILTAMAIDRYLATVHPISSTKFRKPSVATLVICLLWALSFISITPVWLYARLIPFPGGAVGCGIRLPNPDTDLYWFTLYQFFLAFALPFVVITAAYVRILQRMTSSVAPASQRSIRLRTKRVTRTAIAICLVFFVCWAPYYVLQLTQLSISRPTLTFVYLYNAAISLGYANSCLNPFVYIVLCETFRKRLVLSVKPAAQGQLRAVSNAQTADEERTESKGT
T2 sequence (P25103 whole entry): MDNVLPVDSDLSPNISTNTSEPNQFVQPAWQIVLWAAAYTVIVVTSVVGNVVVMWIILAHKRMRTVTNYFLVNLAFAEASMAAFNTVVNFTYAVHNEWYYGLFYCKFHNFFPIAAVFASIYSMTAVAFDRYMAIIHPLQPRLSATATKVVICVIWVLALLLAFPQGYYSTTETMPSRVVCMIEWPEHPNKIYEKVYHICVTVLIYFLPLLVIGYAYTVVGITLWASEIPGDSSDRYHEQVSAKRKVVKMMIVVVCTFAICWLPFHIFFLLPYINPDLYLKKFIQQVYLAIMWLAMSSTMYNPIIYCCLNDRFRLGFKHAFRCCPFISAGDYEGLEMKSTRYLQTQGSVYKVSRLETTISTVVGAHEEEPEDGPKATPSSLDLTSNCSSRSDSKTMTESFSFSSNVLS
T6 sequence (P35372 whole entry): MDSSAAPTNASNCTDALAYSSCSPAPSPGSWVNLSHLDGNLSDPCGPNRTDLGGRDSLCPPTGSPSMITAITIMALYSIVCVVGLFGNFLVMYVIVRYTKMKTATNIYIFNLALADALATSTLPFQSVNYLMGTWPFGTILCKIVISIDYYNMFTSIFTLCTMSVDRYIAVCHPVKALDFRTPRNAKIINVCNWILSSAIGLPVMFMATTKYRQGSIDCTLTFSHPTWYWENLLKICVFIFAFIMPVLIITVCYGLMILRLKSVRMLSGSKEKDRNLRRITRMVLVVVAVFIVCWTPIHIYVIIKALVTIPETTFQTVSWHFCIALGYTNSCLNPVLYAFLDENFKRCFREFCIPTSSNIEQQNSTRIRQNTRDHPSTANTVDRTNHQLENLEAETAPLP
T9 sequence (P33032 whole entry): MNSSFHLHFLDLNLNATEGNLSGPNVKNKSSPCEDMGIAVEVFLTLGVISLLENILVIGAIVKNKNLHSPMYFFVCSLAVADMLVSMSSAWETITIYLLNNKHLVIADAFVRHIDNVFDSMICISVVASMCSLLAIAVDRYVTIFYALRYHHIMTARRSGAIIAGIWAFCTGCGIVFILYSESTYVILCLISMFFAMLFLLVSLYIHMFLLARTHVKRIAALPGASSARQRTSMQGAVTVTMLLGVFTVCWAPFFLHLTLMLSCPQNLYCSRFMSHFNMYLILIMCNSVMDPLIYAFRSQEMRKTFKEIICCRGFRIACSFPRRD
T4 sequence (P41968 whole entry): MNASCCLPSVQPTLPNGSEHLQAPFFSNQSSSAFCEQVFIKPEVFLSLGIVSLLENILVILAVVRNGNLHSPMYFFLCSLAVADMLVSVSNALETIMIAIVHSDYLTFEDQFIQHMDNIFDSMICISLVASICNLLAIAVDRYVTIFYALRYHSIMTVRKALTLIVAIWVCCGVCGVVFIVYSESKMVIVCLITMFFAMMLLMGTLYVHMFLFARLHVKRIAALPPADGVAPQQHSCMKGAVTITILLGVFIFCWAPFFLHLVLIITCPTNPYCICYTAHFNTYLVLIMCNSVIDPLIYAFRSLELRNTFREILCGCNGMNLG
T7 sequence (P41146 whole entry): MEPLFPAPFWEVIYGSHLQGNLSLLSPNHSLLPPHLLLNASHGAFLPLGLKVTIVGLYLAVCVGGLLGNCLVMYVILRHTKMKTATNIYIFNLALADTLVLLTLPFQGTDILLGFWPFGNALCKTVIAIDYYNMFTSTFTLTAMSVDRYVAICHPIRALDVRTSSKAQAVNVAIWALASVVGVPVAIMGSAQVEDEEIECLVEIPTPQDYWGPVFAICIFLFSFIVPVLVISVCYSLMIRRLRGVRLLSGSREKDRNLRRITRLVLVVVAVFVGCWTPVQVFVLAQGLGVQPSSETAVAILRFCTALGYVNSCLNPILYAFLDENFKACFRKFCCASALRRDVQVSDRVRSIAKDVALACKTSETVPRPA

COCC1OC(OCCc2ccccc2)C(NC(=O)CCCNC(=N)N)C(OCc2ccc3ccccc3c2)C1O (stereo not shown) [compound 229]
A1: inhibition of radioligand binding (Human δ-opioid (DOP); [3H]-Bremazocine, FlashPlate): − (“−” indicates less than 50% inhibition at 10 μM)
A8: inhibition of radioligand binding (Human neurokinin (NK1); [125I]-Substance P, filtration): + (“+” indicates greater than 50% inhibition at 10 μM)
A6: inhibition of radioligand binding ([1]; [125I]-S36057, FlashPlate): + (“+” indicates greater than 50% inhibition at 10 μM)
A3: inhibition of radioligand binding (Human Melanocortin (MC3); [125I]-NDP-αMSH, FlashPlate): − (“−” indicates less than 50% inhibition at 10 μM)
A9: inhibition of radioligand binding ([2]; [125I]-PYY, FlashPlate): − (“−” indicates less than 50% inhibition at 10 μM)
A7: inhibition of radioligand binding (Human μ-opioid (MOP); [3H]-Naloxone, FlashPlate): − (“−” indicates less than 50% inhibition at 10 μM)
A10: inhibition of radioligand binding (Human opioid (ORL1); [125I]-Nociceptin, FlashPlate): − (“−” indicates less than 50% inhibition at 10 μM)
A11: inhibition of radioligand binding (Mouse urotensin (mUR2); [125I]-Urotensin II, FlashPlate): − (“−” indicates less than 50% inhibition at 10 μM)
A5: inhibition of radioligand binding (Human melanocortin (MC5); [125I]-NDP-αMSH, FlashPlate): + (“+” indicates greater than 50% inhibition at 10 μM)
A4: inhibition of radioligand binding (Human Melanocortin (MC4); [125I]-NDP-αMSH, FlashPlate): + (“+” indicates greater than 50% inhibition at 10 μM)
A2: inhibition of radioligand binding (Human κ-Opioid (KOP); [3H]-Diprenorphine, filtration): − (“−” indicates less than 50% inhibition at 10 μM)

CO[C@H]1[C@H](O)[C@@H](COCc2ccc(Cl)cc2)OC(OCc2ccc(-c3ccccc3)cc2)[C@@H]1NC(=O)CCCN (stereo partly shown) [compound 64]
A1 radioligand binding inhibition (Human δ-opioid (DOP); human δ-opioid (DOP) membranes): − (“−” indicates less than 50% inhibition at 10 μM)
A8 radioligand binding inhibition (Human neurokinin (NK1); human neurokinin NK1 membranes): + (“+” indicates greater than 50% inhibition at 10 μM)
A6 radioligand binding inhibition ([1]; human MCH1 membranes): − (“−” indicates less than 50% inhibition at 10 μM)
A3 radioligand binding inhibition (Human Melanocortin (MC3); human melanocortin MC3 membranes): + (“+” indicates greater than 50% inhibition at 10 μM)
A9 radioligand binding inhibition ([2]; human NPY-Y1 membranes): − (“−” indicates less than 50% inhibition at 10 μM)
A7 radioligand binding inhibition (Human μ-opioid (MOP); human μ-opioid (MOP) membranes): − (“−” indicates less than 50% inhibition at 10 μM)
A10 radioligand binding inhibition (Human opioid (ORL1); human ORL1 membranes): − (“−” indicates less than 50% inhibition at 10 μM)
A11 radioligand binding inhibition (Mouse urotensin (mUR2); mouse urotensin mUR2 membranes): − (“−” indicates less than 50% inhibition at 10 μM)
A5 radioligand binding inhibition (Human melanocortin (MC5); human melanocortin MC5 membranes): + (“+” indicates greater than 50% inhibition at 10 μM)
A4 radioligand binding inhibition (Human Melanocortin (MC4); human melanocortin MC4 membranes): − (“−” indicates less than 50% inhibition at 10 μM)
A2 radioligand binding inhibition (Human κ-Opioid (KOP); human κ-opioid (KOP) membranes): − (“−” indicates less than 50% inhibition at 10 μM)

NCCC(=O)NC1C(OCc2ccc3ccccc3c2)OC(COCc2ccc(Cl)cc2)C(O)C1OCc1ccccc1 (single isomer, unassigned) [compound 453]
A1: inhibition of radioligand binding (Human δ-opioid (DOP); [3]): − (“−” indicates less than 50% inhibition at 10 μM)
A8: inhibition of radioligand binding (Human neurokinin (NK1); [4]): + (“+” indicates greater than 50% inhibition at 10 μM)
A6: inhibition of radioligand binding ([1]; [125I]-S36057, human MCH1 membranes, 10 µM): + (“+” indicates greater than 50% inhibition at 10 μM)
A3: inhibition of radioligand binding (Human Melanocortin (MC3); [125I]-NDP-αMSH, human MC3 membranes, 10 µM): + (“+” indicates greater than 50% inhibition at 10 μM)
A9: inhibition of radioligand binding [2, 5]: − (“−” indicates less than 50% inhibition at 10 μM)
A7: inhibition of radioligand binding (Human μ-opioid (MOP); [6]): − (“−” indicates less than 50% inhibition at 10 μM)
A10: inhibition of radioligand binding (Human opioid (ORL1); [125I]-Nociceptin, human ORL1 membranes, 10 µM): − (“−” indicates less than 50% inhibition at 10 μM)
A11: inhibition of radioligand binding (Mouse urotensin (mUR2); [7]): − (“−” indicates less than 50% inhibition at 10 μM)
A5: inhibition of radioligand binding (Human melanocortin (MC5); [8]): + (“+” indicates greater than 50% inhibition at 10 μM)
A4: inhibition of radioligand binding (Human Melanocortin (MC4); [9]): + (“+” indicates greater than 50% inhibition at 10 μM)
A2: inhibition of radioligand binding (Human κ-Opioid (KOP); [10]): − (“−” indicates less than 50% inhibition at 10 μM)

N=C(N)NCCC(=O)NC1C(OCc2ccc(-c3ccccc3)cc2)OC(COCc2ccc3ccccc3c2)C(O)C1OCc1ccc2ccccc2c1 (stereo not shown) [compound 411]
A1: inhibition of radioligand binding (Human δ-opioid (DOP); [3]): − (“−” indicates less than 50% inhibition at 10 μM)
A8: inhibition of radioligand binding (Human neurokinin (NK1); [4]): + (“+” indicates greater than 50% inhibition at 10 μM)
A6: inhibition of radioligand binding ([1]; [125I]-S36057, human MCH1 membranes): + (“+” indicates greater than 50% inhibition at 10 μM)
A3: inhibition of radioligand binding (Human Melanocortin (MC3); [125I]-NDP-αMSH, human MC3 membranes): + (“+” indicates greater than 50% inhibition at 10 μM)
A9: inhibition of radioligand binding [2, 5]: − (“−” indicates less than 50% inhibition at 10 μM)
A7: inhibition of radioligand binding (Human μ-opioid (MOP); [6]): − (“−” indicates less than 50% inhibition at 10 μM)
A10: inhibition of radioligand binding (Human opioid (ORL1); [125I]-Nociceptin, human ORL1 membranes): + (“+” indicates greater than 50% inhibition at 10 μM)
A11: inhibition of radioligand binding (Mouse urotensin (mUR2); [7]): − (“−” indicates less than 50% inhibition at 10 μM)
A5: inhibition of radioligand binding (Human melanocortin (MC5); [8]): + (“+” indicates greater than 50% inhibition at 10 μM)
A4: inhibition of radioligand binding (Human Melanocortin (MC4); [9]): + (“+” indicates greater than 50% inhibition at 10 μM)
A2: inhibition of radioligand binding (Human κ-Opioid (KOP); [10]): − (“−” indicates less than 50% inhibition at 10 μM)

COC[C@H]1OC(OCc2ccc(Cl)cc2)[C@H](NC(=O)CCCN)[C@@H](OCc2ccc(-c3ccccc3)cc2)[C@@H]1O (stereo partly shown) [compound 342]
A1: inhibition of radioligand binding, human δ-opioid (DOP) (Human δ-opioid (DOP); [3H]-Bremazocine): − (“−” indicates less than 50% inhibition at 10 μM)
A8: inhibition of radioligand binding, human neurokinin (NK1) (Human neurokinin (NK1); [125I]-Substance P): + (“+” indicates greater than 50% inhibition at 10 μM)
A6: inhibition of radioligand binding, human melanin-concentrating hormone (MCH1) ([1]; [125I]-S36057): − (“−” indicates less than 50% inhibition at 10 μM)
A3: inhibition of radioligand binding, human melanocortin (MC3) (Human Melanocortin (MC3); [125I]-NDP-αMSH): − (“−” indicates less than 50% inhibition at 10 μM)
A9: inhibition of radioligand binding, human neuropeptide Y (NPY-Y1) ([2]; [125I]-PYY): − (“−” indicates less than 50% inhibition at 10 μM)
A7: inhibition of radioligand binding, human μ-opioid (MOP) (Human μ-opioid (MOP); [3H]-Naloxone): + (“+” indicates greater than 50% inhibition at 10 μM)
A10: inhibition of radioligand binding, human opioid (ORL1) (Human opioid (ORL1); [125I]-Nociceptin): − (“−” indicates less than 50% inhibition at 10 μM)
A11: inhibition of radioligand binding, mouse urotensin (mUR2) (Mouse urotensin (mUR2); [125I]-Urotensin II): − (“−” indicates less than 50% inhibition at 10 μM)
A5: inhibition of radioligand binding, human melanocortin (MC5) (Human melanocortin (MC5); [125I]-NDP-αMSH): − (“−” indicates less than 50% inhibition at 10 μM)
A4: inhibition of radioligand binding, human melanocortin (MC4) (Human Melanocortin (MC4); [125I]-NDP-αMSH): + (“+” indicates greater than 50% inhibition at 10 μM)
A2: inhibition of radioligand binding, human κ-opioid (KOP) (Human κ-Opioid (KOP); [3H]-Diprenorphine): − (“−” indicates less than 50% inhibition at 10 μM)
